≈ marks a conversion by molar mass, not a printed value.
How the values were obtained:
[1] = test system: Staphylococcus aureus; assay: In vivo activity against experimental bacterial infection; details: mice, subcutaneous, two doses
Protocol: (§1) The representative A-21978C cyclic peptide of formula 1 has shown in vivo antimicrobial activity against experimental bacterial infections. When two doses of test compound were administered to mice in illustrative infections, the activity observed was measured as an ED50 value [effective dose in mg/kg to protect fifty percent of the test animals: See Warren Wick, et al., J. Bacteriol. 81, 233-235 (1961)].

[2] = test system: Streptococcus pyogenes; assay: as above; details: mice, two doses
Protocol: as §1

[3] = test system: Staphylococcus epidermidis EPI1; assay: Standard agar-dilution test (MIC); assay type: cell-based
Protocol: (§2) The results of the antibacterial testing of a representative compound of formula 1, using the standard agar-dilution test, are summarized in Table II. In Table II activity is measured by the minimal inhibitory concentration (MIC), i.e. the lowest concentration of compound which inhibits the growth of the microorganism.

[4] = test system: Streptococcus pyogenes C203; assay: Standard agar-dilution test (MIC); assay type: cell-based
Protocol: as §2

[5] = test system: Staphylococcus aureus S13E; assay: Standard agar-dilution test (MIC); assay type: cell-based
Protocol: as §2

[6] = test system: Staphylococcus aureus X400; assay: Standard agar-dilution test (MIC); assay type: cell-based; details: Staphylococcus aureus X400, methicillin-resistant strain
Protocol: as §2

[7] = test system: Staphylococcus aureus X1.1; assay: Standard agar-dilution test (MIC); assay type: cell-based
Protocol: as §2

[8] = test system: Staphylococcus epidermidis EPI2; assay: Standard agar-dilution test (MIC); assay type: cell-based
Protocol: as §2

[9] = test system: Staphylococcus aureus V41; assay: Standard agar-dilution test (MIC); assay type: cell-based; details: Staphylococcus aureus V41, penicillin-resistant strain
Protocol: as §2

[10] = test system: Streptococcus Group D X66; assay: Standard agar-dilution test (MIC); assay type: cell-based
Protocol: as §2

[11] = test system: Streptococcus Group 9960; assay: Standard agar-dilution test (MIC); assay type: cell-based
Protocol: as §2

[12] = test system: Micrococcus luteus ATCC 9341; assay: Agar-plate disc-diffusion test; assay type: cell-based; details: 1 mg/ml, 7mm disc, 24-48 hours at 25-37° C.
[13] = test system: Staphylococcus aureus ATCC 6738P; assay: Agar-plate disc-diffusion test; assay type: cell-based; details: compound suspended in water at 1 mg/ml, 7mm disc, 24-48 hours at 25-37° C.
[14] = test system: Bacillus subtilis ATCC 6633; assay: Agar-plate disc-diffusion test; details: 1 mg/ml, 7mm disc
Protocol: ^a Compounds were suspended in water at a concentration of 1 mg/ml; a
7mm disc was dipped into the suspension and then placed on the agar
surface; incubation 24-48 hours at 25-37° C.

[15] = B. subtilis ATCC 6633 grown on minimal nutrient agar
[16] = Bacillus subtilis ATCC 6633, 24-48 hours at 25-37° C.

| Compound | ED50 Values [1] | ED50 Values ([2]; oral) | ED50 Values ([2]; subcutaneous) | MIC Values [3] | MIC Values [4] | MIC Values [5] | MIC Values [6] | MIC Values [7] | MIC Values [8] | MIC Values [9] | MIC Values [10] | MIC Values [11] | Size of Zone of Inhibition [12] | Size of Zone of Inhibition [13] | Size of Zone of Inhibition [14, 15] | Size of Zone of Inhibition [14, 16] |
| --- | --- | --- | --- | --- | --- | --- | --- | --- | --- | --- | --- | --- | --- | --- | --- | --- |
| CCCCCCCCCCCCOc1ccc(C(=O)N[C@@H](Cc2c[nH]c3ccccc23)C(=O)N[C@H](CC(N)=O)C(=O)N[C@@H](CC(=O)O)C(=O)N[C@@H]2C(=O)NCC(=O)N[C@@H](CCCN)C(=O)N[C@@H](CC(=O)O)C(=O)N[C@H](C)C(=O)N[C@@H](CC(=O)O)C(=O)NCC(=O)N[C@H](CO)C(=O)N[C@@H]([C@H](C)CC(=O)O)C(=O)N[C@@H](CC(=O)c3ccccc3N)C(=O)O[C@@H]2C)cc1 [NTrp --p-(n-Dodecyloxy)benzoyl-A-21978C, NTrp -p-(n-dodecyloxy)benzoyl-A-21978C Nucleus] | 3.35 mg/kg × 2 | > 200 mg/kg × 2 | 0.31 mg/kg × 2 | 4 µg/mL (≈ 2.28 µM) | 0.25 µg/mL (≈ 0.142 µM) | 1 µg/mL (≈ 0.57 µM) | 2 µg/mL (≈ 1.14 µM) | 1 µg/mL (≈ 0.57 µM) | 2 µg/mL (≈ 1.14 µM) | 1 µg/mL (≈ 0.57 µM) | 2 µg/mL (≈ 1.14 µM) | 1 µg/mL (≈ 0.57 µM) | 18 mm | 20 mm | 20 mm | 13 mm |
| NTrp -p-(n-Dodecyloxy)benzoyl-NOrn -t-BOC-A-21978C Nucleus [p-(n-dodecyloxy)benzoyl t-BOC] |  |  |  |  |  |  |  |  |  |  |  |  | 15 mm | 20 mm | 22 mm | 10 mm |
